Results reported in US11767310B2, “Nicotinamide RIPK1 inhibitors” (AbbVie Inc., priority 2021, dated 2023).
Like-named read-outs stand apart in the source and are kept apart here.

Assays:
Experiment in all cases: Kinase binding screen
PIK3CA(Q546K) = PIK3CA(Q546K) (Homo sapiens (Human), UniProt P42336, Q546K); conditions: read-out: Percent Control at 100 nM Compound Concentration
HIPK4 = HIPK4 (Homo sapiens (Human), UniProt Q8NE63); conditions: read-out: Percent Control at 100 nM Compound Concentration
FLT3(ITD) = system: FLT3(ITD); set-up: species or system human
KIT = KIT (Homo sapiens (Human), UniProt P10721); conditions: read-out: Percent Control at 100 nM Compound Concentration
Chain of KIT (P10721 26-976): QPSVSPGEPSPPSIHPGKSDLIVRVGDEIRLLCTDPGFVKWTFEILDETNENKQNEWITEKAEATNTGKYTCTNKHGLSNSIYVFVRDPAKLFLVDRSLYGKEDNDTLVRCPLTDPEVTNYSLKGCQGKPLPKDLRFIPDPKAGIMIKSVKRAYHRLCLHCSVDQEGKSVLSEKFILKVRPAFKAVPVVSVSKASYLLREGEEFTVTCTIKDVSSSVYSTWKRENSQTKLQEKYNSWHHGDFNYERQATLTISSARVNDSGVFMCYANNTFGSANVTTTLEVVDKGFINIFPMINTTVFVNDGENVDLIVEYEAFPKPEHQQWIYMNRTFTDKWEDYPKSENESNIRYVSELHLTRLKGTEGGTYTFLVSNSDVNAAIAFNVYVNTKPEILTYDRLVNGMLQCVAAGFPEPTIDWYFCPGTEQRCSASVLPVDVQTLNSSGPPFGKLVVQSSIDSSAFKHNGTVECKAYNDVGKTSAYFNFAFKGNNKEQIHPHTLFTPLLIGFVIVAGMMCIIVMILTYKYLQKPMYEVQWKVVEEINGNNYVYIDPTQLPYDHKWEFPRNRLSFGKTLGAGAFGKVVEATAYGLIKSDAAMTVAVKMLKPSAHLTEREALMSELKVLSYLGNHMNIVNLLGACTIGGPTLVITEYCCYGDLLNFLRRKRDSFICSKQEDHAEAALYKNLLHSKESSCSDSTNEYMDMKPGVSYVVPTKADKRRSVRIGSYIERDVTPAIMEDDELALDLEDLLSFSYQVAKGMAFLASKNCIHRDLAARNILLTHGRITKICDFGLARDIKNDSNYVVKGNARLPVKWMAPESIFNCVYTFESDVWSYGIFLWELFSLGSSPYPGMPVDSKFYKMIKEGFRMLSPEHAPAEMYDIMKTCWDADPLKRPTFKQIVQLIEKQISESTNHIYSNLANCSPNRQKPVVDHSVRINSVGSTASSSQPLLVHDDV

SRPK2 = SRPK2 (Homo sapiens (Human), UniProt P78362); conditions: read-out: Percent Control at 100 nM Compound Concentration
CDC2L1 = CDC2L1 (Homo sapiens (Human), UniProt P21127); conditions: read-out: Percent Control at 100 nM Compound Concentration
CDK4-cyclinD1 = CDK4-cyclinD1 (Homo sapiens (Human), UniProt P11802); conditions: read-out: Percent Control at 100 nM Compound Concentration
AXL = AXL (Homo sapiens (Human), UniProt P30530); conditions: read-out: Percent Control at 100 nM Compound Concentration
WEE1 = WEE1 (Homo sapiens (Human), UniProt P30291); conditions: read-out: Percent Control at 100 nM Compound Concentration
CSNK2A2 = CSNK2A2 (Homo sapiens (Human), UniProt P19784); conditions: read-out: Percent Control at 100 nM Compound Concentration
Chain of CSNK2A2 (P19784 whole entry): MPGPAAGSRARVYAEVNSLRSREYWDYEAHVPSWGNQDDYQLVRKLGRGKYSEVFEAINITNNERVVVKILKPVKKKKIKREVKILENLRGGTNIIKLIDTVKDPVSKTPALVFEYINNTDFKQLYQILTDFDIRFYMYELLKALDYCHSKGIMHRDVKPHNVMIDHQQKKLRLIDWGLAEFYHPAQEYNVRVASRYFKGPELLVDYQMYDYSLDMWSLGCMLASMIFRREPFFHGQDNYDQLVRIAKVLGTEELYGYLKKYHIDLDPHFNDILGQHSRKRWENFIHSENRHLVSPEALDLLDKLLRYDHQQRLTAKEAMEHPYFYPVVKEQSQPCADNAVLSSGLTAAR

TRKB = TRKB (Homo sapiens (Human), UniProt Q16620); conditions: read-out: Percent Control at 100 nM Compound Concentration
PLK4 = PLK4 (Homo sapiens (Human), UniProt O00444); conditions: read-out: Percent Control at 100 nM Compound Concentration
Chain of PLK4 (O00444 whole entry): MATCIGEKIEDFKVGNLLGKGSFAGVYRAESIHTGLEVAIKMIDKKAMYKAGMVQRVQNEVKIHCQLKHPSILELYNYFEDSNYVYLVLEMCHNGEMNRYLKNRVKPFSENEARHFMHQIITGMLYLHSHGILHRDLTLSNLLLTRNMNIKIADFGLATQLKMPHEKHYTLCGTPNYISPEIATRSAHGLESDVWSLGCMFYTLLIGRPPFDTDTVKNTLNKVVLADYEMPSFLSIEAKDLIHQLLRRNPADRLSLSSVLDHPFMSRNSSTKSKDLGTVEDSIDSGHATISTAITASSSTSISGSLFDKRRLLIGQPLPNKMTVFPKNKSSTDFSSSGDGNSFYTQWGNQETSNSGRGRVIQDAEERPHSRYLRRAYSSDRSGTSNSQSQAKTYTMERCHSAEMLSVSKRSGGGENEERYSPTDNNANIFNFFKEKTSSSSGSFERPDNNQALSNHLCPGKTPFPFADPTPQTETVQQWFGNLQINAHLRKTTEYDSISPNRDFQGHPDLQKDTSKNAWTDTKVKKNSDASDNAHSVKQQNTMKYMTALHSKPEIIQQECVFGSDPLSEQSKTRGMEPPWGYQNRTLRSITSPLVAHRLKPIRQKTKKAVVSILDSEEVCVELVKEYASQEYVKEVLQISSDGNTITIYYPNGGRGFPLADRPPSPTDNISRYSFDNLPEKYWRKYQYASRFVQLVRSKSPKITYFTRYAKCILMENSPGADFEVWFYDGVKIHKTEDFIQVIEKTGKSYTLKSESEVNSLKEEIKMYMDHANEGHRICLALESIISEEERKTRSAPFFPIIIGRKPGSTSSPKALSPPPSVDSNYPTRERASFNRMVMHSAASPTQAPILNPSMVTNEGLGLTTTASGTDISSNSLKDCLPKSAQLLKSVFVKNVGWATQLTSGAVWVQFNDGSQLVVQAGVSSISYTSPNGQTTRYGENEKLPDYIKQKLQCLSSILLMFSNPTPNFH

FGFR3(G697C) = FGFR3(G697C) (Homo sapiens (Human), UniProt P22607, G697C); conditions: read-out: Percent Control at 100 nM Compound Concentration
Chain of FGFR3(G697C) (P22607 23-806 G697C): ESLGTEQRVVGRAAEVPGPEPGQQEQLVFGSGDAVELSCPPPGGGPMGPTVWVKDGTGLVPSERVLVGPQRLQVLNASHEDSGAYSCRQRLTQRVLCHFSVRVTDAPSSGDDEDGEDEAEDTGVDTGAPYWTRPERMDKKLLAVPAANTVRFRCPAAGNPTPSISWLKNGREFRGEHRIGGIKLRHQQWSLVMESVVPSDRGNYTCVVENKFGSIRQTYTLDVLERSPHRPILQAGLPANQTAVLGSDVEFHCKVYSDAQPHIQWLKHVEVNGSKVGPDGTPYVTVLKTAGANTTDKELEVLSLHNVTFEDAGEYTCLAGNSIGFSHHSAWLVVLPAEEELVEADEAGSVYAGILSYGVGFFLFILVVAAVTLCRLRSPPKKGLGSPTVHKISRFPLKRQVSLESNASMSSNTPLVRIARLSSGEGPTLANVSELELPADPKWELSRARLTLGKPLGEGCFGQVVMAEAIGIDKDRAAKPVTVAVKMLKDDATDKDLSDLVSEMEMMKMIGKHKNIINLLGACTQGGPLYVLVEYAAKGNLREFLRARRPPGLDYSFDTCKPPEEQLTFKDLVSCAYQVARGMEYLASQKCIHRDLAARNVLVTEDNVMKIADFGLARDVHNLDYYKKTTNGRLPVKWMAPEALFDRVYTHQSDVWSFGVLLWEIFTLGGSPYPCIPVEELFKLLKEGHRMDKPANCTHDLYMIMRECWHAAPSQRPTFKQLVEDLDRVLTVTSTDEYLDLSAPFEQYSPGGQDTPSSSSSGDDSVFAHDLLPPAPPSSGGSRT

MLK1 = MLK1 (Homo sapiens (Human), UniProt P80192); conditions: read-out: Percent Control at 100 nM Compound Concentration
MY03A = MY03A (Homo sapiens (Human), UniProt Q8NEV4); conditions: read-out: Percent Control at 100 nM Compound Concentration
MYLK4 = MYLK4 (Homo sapiens (Human), UniProt Q86YV6); conditions: read-out: Percent Control at 100 nM Compound Concentration
LTK = LTK (Homo sapiens (Human), UniProt P29376); conditions: read-out: Percent Control at 100 nM Compound Concentration
Chain of LTK (P29376 17-864): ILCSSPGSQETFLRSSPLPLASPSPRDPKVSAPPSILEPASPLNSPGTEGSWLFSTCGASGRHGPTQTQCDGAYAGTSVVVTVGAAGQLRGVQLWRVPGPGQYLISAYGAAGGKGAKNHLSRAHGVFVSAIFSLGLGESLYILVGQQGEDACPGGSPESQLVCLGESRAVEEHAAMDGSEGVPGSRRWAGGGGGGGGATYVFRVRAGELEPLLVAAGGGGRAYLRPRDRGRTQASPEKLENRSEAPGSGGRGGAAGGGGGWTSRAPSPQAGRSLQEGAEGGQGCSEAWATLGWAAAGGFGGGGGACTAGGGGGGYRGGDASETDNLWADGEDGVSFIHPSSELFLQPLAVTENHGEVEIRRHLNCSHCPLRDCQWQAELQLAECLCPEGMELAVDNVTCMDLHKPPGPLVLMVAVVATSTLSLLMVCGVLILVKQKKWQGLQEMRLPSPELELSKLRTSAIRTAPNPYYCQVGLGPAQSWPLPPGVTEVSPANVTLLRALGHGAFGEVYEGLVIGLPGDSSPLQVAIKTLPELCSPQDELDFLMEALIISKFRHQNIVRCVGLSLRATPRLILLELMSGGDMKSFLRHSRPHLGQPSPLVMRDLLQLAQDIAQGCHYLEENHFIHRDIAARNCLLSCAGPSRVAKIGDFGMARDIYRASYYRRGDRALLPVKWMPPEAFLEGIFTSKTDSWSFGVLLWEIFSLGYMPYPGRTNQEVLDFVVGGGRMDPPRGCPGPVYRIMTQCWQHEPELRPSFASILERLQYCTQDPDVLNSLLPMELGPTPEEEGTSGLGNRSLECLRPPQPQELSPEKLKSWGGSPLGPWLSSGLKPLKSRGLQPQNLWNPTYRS

MYLK2 = MYLK2 (Homo sapiens (Human), UniProt Q9H1R3); conditions: read-out: Percent Control at 100 nM Compound Concentration
HCK = HCK (Homo sapiens (Human), UniProt P08631); conditions: read-out: Percent Control at 100 nM Compound Concentration
TLK1 = TLK1 (Homo sapiens (Human), UniProt Q9UKI8); conditions: read-out: Percent Control at 100 nM Compound Concentration
MTOR = MTOR (Homo sapiens (Human), UniProt P42345); conditions: read-out: Percent Control at 100 nM Compound Concentration
ROS1 = ROS1 (Homo sapiens (Human), UniProt P08922); conditions: read-out: Percent Control at 100 nM Compound Concentration
INSRR = INSRR (Homo sapiens (Human), UniProt P14616); conditions: read-out: Percent Control at 100 nM Compound Concentration
MAPKAPK2 = MAPKAPK2 (Homo sapiens (Human), UniProt P49137); conditions: read-out: Percent Control at 100 nM Compound Concentration
Chain of MAPKAPK2 (P49137 whole entry): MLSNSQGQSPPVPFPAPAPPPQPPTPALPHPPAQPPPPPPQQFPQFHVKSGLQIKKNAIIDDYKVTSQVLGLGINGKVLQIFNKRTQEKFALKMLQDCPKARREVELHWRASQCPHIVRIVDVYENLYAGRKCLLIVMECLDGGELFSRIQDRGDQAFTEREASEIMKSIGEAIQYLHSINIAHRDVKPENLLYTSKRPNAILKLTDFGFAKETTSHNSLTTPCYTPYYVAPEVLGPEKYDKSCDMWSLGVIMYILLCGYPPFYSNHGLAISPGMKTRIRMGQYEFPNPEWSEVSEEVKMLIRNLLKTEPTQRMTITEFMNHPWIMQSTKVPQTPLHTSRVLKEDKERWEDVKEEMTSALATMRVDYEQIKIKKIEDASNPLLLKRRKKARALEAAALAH

IGFIR = IGFIR (Homo sapiens (Human), UniProt P08069); conditions: read-out: Percent Control at 100 nM Compound Concentration
PIK4CB = PIK4CB (Homo sapiens (Human), UniProt Q9UBF8); conditions: read-out: Percent Control at 100 nM Compound Concentration
EGFR = EGFR (Homo sapiens (Human), UniProt P00533); conditions: read-out: Percent Control at 100 nM Compound Concentration
MAK = MAK (Homo sapiens (Human), UniProt P20794); conditions: read-out: Percent Control at 100 nM Compound Concentration
Chain of MAK (P20794 whole entry): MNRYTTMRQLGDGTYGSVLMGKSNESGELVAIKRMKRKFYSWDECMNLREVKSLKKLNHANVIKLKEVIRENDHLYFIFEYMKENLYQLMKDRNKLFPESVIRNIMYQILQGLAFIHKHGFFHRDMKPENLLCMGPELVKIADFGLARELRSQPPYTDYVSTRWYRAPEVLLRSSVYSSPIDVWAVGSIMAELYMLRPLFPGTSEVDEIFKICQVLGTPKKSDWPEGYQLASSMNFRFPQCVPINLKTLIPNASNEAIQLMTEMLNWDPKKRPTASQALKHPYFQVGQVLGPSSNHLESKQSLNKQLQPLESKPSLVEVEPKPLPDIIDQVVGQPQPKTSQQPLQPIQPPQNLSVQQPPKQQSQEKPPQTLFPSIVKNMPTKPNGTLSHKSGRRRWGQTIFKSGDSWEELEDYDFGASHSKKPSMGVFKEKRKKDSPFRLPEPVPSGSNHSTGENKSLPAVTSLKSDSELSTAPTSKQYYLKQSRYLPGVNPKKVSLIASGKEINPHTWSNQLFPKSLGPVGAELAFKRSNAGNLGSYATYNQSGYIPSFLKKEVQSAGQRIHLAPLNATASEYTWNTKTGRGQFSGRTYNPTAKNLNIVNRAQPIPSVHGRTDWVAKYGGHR

[1] = target: RSK4(Kin.Dom.1-N-terminal) (Homo sapiens (Human), UniProt Q9UK32); conditions: read-out: Percent Control at 100 nM Compound Concentration

SMILES: CN(C[C@@H](O)Cc1ccccc1)C(=O)c1cncc(C#Cc2cnn(C(F)F)c2)c1 [Example 2, (S)-5-((1-(difluoromethyl)-1H-pyrazol-4-yl)ethynyl)-N-(2-hydroxy-3-phenylpropyl)-N-methylnicotinamide]
- remaining activity at 0.1 µM (PIK3CA(Q546K); PIK3CA(Q546K)): 96%
- remaining activity at 0.1 µM (HIPK4; HIPK4): 100%
- Percent Control at 100 nM Compound Concentration (FLT3(ITD)): 100%
- remaining activity at 0.1 µM (KIT; KIT): 100%
- remaining activity at 0.1 µM (SRPK2; SRPK2): 93%
- remaining activity at 0.1 µM (CDC2L1; CDC2L1): 100%
- remaining activity at 0.1 µM (CDK4-cyclinD1; CDK4-cyclinD1): 100%
- remaining activity at 0.1 µM (AXL; AXL): 100%
- remaining activity at 0.1 µM (WEE1; WEE1): 92%
- remaining activity at 0.1 µM (CSNK2A2; CSNK2A2): 100%
- remaining activity at 0.1 µM (TRKB; TRKB): 100%
- remaining activity at 0.1 µM (PLK4; PLK4): 100%
- remaining activity at 0.1 µM (FGFR3(G697C); FGFR3(G697C)): 100%
- remaining activity at 0.1 µM (MLK1; MLK1): 100%
- remaining activity at 0.1 µM (MY03A; MY03A): 99%
- remaining activity at 0.1 µM (MYLK4; MYLK4): 99%
- remaining activity at 0.1 µM (LTK; LTK): 100%
- remaining activity at 0.1 µM (MYLK2; MYLK2): 100%
- remaining activity at 0.1 µM (HCK; HCK): 100%
- remaining activity at 0.1 µM (TLK1; TLK1): 100%
- remaining activity at 0.1 µM (MTOR; MTOR): 73%
- remaining activity at 0.1 µM (ROS1; ROS1): 100%
- remaining activity at 0.1 µM (INSRR; INSRR): 100%
- remaining activity at 0.1 µM (MAPKAPK2; MAPKAPK2): 100%
- remaining activity at 0.1 µM (IGFIR; IGFIR): 100%
- remaining activity at 0.1 µM (PIK4CB; PIK4CB): 100%
- remaining activity at 0.1 µM (EGFR; EGFR): 93%
- remaining activity at 0.1 µM (MAK; MAK): 100%
- remaining activity at 0.1 µM ([1]; RSK4(Kin.Dom.1-N-terminal)): 100%

SMILES: CN(C[C@H](Cc1ccccc1)OP(=O)(O)O)C(=O)c1cncc(C#Cc2cnn(C(F)F)c2)c1 [Example 19, (S)-1-(5-((1-(difluoromethyl)-1H-pyrazol-4-yl)ethynyl)-N-methylnicotinamido)-3-phenylpropan-2-yl dihydrogen phosphate]
- remaining activity at 0.1 µM (PIK3CA(Q546K)): 88%
- remaining activity at 0.1 µM (HIPK4): 100%
- Percent Control at 100 nM Compound Concentration (FLT3(ITD)): 100%
- remaining activity at 0.1 µM (KIT): 99%
- remaining activity at 0.1 µM (SRPK2): 100%
- remaining activity at 0.1 µM (CDC2L1): 100%
- remaining activity at 0.1 µM (CDK4-cyclinD1): 97%
- remaining activity at 0.1 µM (AXL): 96%
- remaining activity at 0.1 µM (WEE1): 100%
- remaining activity at 0.1 µM (CSNK2A2): 100%
- remaining activity at 0.1 µM (TRKB): 94%
- remaining activity at 0.1 µM (PLK4): 100%
- remaining activity at 0.1 µM (FGFR3(G697C)): 100%
- remaining activity at 0.1 µM (MLK1): 96%
- remaining activity at 0.1 µM (MY03A): 93%
- remaining activity at 0.1 µM (MYLK4): 100%
- remaining activity at 0.1 µM (LTK): 100%
- remaining activity at 0.1 µM (MYLK2): 96%
- remaining activity at 0.1 µM (HCK): 100%
- remaining activity at 0.1 µM (TLK1): 100%
- remaining activity at 0.1 µM (MTOR): 67%
- remaining activity at 0.1 µM (ROS1): 91%
- remaining activity at 0.1 µM (INSRR): 100%
- remaining activity at 0.1 µM (MAPKAPK2): 100%
- remaining activity at 0.1 µM (IGFIR): 98%
- remaining activity at 0.1 µM (PIK4CB): 98%
- remaining activity at 0.1 µM (EGFR): 100%
- remaining activity at 0.1 µM (MAK): 100%
- remaining activity at 0.1 µM [1]: 93%
